These results are taken from US20070208166A1, “Tao Kinase Modulators And Method Of Use” (Exelixis, Inc., priority 2003, published 2007).

Holding throughout (format): biochemical
One test has as its target T1, JIK (Homo sapiens, UniProt Q9H2K8).
T1 construct: 6 nM JIK (baculovirus expressed human KIAA 1361 kinase domain2-318); made in house
T1 sequence (Q9H2K8 2-318): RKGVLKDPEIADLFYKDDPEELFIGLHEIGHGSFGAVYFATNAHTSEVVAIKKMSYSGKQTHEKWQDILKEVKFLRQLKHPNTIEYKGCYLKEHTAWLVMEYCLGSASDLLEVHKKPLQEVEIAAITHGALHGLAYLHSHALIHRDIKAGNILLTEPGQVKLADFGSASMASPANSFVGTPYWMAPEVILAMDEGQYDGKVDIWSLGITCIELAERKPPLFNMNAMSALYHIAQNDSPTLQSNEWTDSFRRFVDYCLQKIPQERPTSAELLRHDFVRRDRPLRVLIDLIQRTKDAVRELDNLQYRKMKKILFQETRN
As to the kind of experiment: JIK Luciferase-Coupled Chemiluminescent Kinase assay (LCCA). The following applies: 2 μM ATP, 10 μM MBP, 6 nM JIK, 2 hours; read-out: JIK inhibition IC50. Put shortly:
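Baculovirus-expressed human KIAA 1361 kinase domain 2-318 at 6 nM, with 10 μM MBP and 2 μM ATP in Tris pH 7.5 with Mg/Mn, ran 2 h at ambient temperature. Remaining ATP was read by luciferase chemiluminescence. IC50 comes from a 10-concentration four-parameter fit.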

In another test the target is T2, TAO (Homo sapiens, UniProt Q9UL54).
T2 sequence (Q9UL54 1-1235): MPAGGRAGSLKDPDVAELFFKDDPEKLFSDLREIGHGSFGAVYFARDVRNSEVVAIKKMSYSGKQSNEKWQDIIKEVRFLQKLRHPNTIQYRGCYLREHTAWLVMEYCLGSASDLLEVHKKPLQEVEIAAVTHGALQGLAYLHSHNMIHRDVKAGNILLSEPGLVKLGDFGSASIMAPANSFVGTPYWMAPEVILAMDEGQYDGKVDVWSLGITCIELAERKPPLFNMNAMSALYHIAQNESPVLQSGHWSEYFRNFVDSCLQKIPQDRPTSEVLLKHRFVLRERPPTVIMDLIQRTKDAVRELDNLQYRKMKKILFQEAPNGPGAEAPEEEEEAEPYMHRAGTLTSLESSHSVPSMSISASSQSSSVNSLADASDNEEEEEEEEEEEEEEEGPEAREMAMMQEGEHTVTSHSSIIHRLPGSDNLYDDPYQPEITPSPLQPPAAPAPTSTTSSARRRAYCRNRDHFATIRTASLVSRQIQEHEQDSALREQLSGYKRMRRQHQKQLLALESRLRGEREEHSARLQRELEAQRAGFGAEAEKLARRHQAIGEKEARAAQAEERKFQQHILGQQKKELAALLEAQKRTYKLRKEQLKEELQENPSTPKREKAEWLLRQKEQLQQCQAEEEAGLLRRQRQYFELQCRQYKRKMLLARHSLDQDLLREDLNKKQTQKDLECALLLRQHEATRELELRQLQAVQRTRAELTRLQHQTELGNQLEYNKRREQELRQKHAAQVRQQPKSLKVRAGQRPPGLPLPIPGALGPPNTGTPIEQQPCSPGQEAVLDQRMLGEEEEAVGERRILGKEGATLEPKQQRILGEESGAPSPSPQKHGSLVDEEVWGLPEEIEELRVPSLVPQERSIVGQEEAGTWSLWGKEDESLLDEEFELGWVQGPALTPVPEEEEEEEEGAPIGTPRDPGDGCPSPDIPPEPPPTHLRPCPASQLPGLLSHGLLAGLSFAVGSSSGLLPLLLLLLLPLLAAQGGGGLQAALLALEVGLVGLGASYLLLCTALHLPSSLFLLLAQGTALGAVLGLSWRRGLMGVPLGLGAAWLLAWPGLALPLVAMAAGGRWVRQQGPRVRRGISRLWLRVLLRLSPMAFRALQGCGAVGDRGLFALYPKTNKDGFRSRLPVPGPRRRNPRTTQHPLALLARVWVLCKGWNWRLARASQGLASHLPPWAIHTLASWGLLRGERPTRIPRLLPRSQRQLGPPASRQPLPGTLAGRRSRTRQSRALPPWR
Description: TAO Luciferase-Coupled Chemiluminescent Kinase assay (LCCA). As to conditions: 2 μM ATP, 10 μM MBP, 12 nM TAO, 2 hours; read-out: TAO inhibition IC50.

Test [1] addresses T3, KIAA 1361 (baculovirus expressed human KIAA 1361 kinase domain 2-322) (Homo sapiens, UniProt Q7L7X3).
T3 construct: human KIAA 1361 kinase domain 2-322; made in house
T3 sequence (Q7L7X3 2-322): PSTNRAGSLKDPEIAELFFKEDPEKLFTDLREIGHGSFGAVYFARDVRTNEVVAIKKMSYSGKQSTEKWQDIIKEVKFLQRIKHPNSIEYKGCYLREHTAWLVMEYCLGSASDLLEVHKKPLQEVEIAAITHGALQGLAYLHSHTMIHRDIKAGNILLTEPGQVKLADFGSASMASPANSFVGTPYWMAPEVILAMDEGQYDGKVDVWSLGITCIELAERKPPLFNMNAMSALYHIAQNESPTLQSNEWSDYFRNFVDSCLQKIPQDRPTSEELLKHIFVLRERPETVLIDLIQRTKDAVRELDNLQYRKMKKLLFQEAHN
As to the kind of experiment: KIAA 1361 Luciferase-Coupled Chemiluminescent Kinase assay (LCCA). The following applies: 2 μM ATP, 10 μM MBP, 12 nM KIAA 1361, 2 hours; read-out: KIAA1361 inhibition IC50. A digest of the protocol: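 KIAA 1361 kinase domain 2-322 (baculovirus, 12 nM) with 2 μM ATP and 10 μM MBP in Tris pH 7.5, MgCl2, MnCl2; 2 h, ambient. Remaining ATP read by luciferase chemiluminescence; 10 concentrations, IC50 by four-parameter fit.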

SMILES strings stand for the structures. Where only a bound is given, the exact number is not on record here.

As for `O=C(CNC(=O)c1ccc(O)cc1)NC1CCCc2ccccc21` (stereo not drawn) [Entry 56, 4-hydroxy-N-[2-oxo-2-(1,2,3,4-tetrahydronaphthalen-1-ylamino)ethyl]benzamide], the half-inhibitory concentration (IC50) on JIK fell in the range of 50 to 500 nM; at TAO, 500 to 5000 nM; in test [1], 50 to 500 nM.

For the molecule `CCc1ccc(-c2ccc(C(=O)NCC(=O)N3Cc4ccccc4C3)cc2)cc1` [Entry 57, N-[2-(1,3-dihydro-2H-isoindol-2-yl)-2-oxoethyl]-4′-ethylbiphenyl-4-carboxamide], the IC50 (on JIK; at TAO; in test [1]) was > 5000 nM throughout.

As for `O=C(CNC(=O)c1ccc(N2CCOCC2)cc1)NC1CCCc2ccccc21` (stereo not drawn) [Entry 58, 4-morpholin-4-yl-N-[2-oxo-2-(1,2,3,4-tetrahydronaphthalen-1-ylamino)ethyl]benzamide], the IC50 at JIK is 500 to 5000 nM; on TAO, > 5000 nM; in test [1], > 5000 nM.

Take `COc1cc2cc(C(=O)NCC(=O)NC3CCCc4ccccc43)[nH]c2cc1OC` (stereo not drawn) [Entry 59, 5,6-bis(methyloxy)-N-(2-oxo-2-(1,2,3,4-tetrahydronaphthalen-1-ylamino)ethyl]-1H-indole-2-carboxamide]: the IC50 at JIK lay within 50 to 500 nM; at TAO, 500 to 5000 nM; in test [1], 500 to 5000 nM.

On to `CCc1ccc(-c2ccc(C(=O)NCC(=O)N3CCc4ccccc4C3)cc2)cc1` [Entry 60, N-[2-(3,4-dihydroisoquinolin-2(1H)-yl)-2-oxoethyl]-4′-ethylbiphenyl-4-carboxamide], for which the half-inhibitory concentration (IC50) (on JIK; at TAO; in test [1]) was > 5000 nM throughout.

For `CCc1ccc(-c2ccc(C(=O)NCC(=O)N[C@H]3CCCc4ccccc43)cc2)cc1` [Entry 61, 4′-ethyl-N-{2-oxo-2-[(1S)-1,2,3,4-tetrahydronaphthalen-1-ylamino]ethyl}biphenyl-4-carboxamide], the 50% inhibitory concentration (IC50) (at JIK; on TAO; in test [1]) was < 50 nM throughout.

Take `CCOCCCNC(=O)c1ccc(C(=O)NCC2COc3ccccc3O2)cc1N` (stereo not drawn) [Entry 62, 2-amino-N-˜4˜-(2,3-dihydro-1,4-benzodioxin-2-ylmethyl)-N˜1˜-[3-(ethyloxy)propyl]benzene-1,4-dicarboxamide]: the IC50 (on JIK; on TAO; in test [1]) was > 5000 nM in each case.

For `COc1ccc2nc(NC(=O)CNC(=O)CC(NC(=O)c3ccccc3)c3ccccc3)sc2c1` (stereo not drawn) [Entry 63, N-{3-[(2-{[6-(methyloxy)-1,3-benzothiazol-2-yl]amino}-2-oxoethyl)amino]-3-oxo-1-phenylpropyl}benzamide], the half-inhibitory concentration (IC50) (at JIK; at TAO; in test [1]) was < 50 nM each time.

For `CCc1ccc(-c2ccc(C(=O)NCC(=O)Nc3nc4ccc(OC)cc4s3)cc2)cc1` [Entry 64, 4′ethyl-N-(2-{[6-(methyloxy)-1,3-benzothiazol-2-yl]amino}-2-oxoethyl)biphenyl-4-carboxamide], the IC50 (on JIK; at TAO; in test [1]) was > 5000 nM each time.

As to `CCc1ccc(-c2ccc(C(=O)NCC(=O)NCC3COc4ccccc4O3)cc2)cc1` (stereo not drawn) [Entry 65, N-{2-[(2,3-dihydro-1,4-benzodioxin-2-ylmethyl)amino]-2-oxoethyl}-4′-ethylbiphenyl-4-carboxamide], the 50% inhibitory concentration (IC50) (at JIK; at TAO; in test [1]) was > 5000 nM throughout.

Turning to `CCc1ccc(-c2ccc(C(=O)N(C)CC(=O)NC3CCCc4ccccc43)cc2)cc1` (stereo not drawn) [Entry 66, 4′-ethyl-N-methyl-N-[2-oxo-2-(1,2,3,4-tetrahydronaphthalen-1-ylamino)ethyl]biphenyl-4-carboxamide], the IC50 (at JIK; at TAO; in test [1]) was > 5000 nM each time.

As for `CCc1ccc(-c2ccc(C(=O)NCC(=O)Nc3cccc4ccccc34)cc2)cc1` [Entry 67, 4′-ethyl-N-[2-(naphthalen-1-ylamino)-2-oxoethyl]biphenyl-4-carboxamide], the IC50 on JIK is < 50 nM; at TAO, 50 to 500 nM; in test [1], < 50 nM.

Turning to `CCc1ccc(-c2ccc(C(=O)NCC(=O)N3CCN(c4ccccc4)CC3)cc2)cc1` [Entry 68, 4′-ethyl-N-[2-oxo-2-(4-phenylpiperazin-1-yl)ethyl]biphenyl-4-carboxamide], the IC50 (at JIK; at TAO; in test [1]) was > 5000 nM throughout.

Regarding `O=C(CNCc1ccc(-c2ccccc2)cc1)NC1CCCc2ccccc21` (stereo not drawn) [Entry 69, N˜2˜-(biphenyl-4-ylmethyl)-N-(1,2,3,4-tetrahydronaphthalen-1-yl)glycinamide], the 50% inhibitory concentration (IC50) (on JIK; on TAO; in test [1]) was > 5000 nM throughout.

Take `O=C(CNC(=O)c1ccc(-n2ccnc2)cc1)NC1CCCc2ccccc21` (stereo not drawn) [Entry 70, 4-(1H-imidazol-1-yl)-N-[2-oxo-2-(1,2,3,4-tetrahydronaphthalen-1-ylamino)ethyl]benzamide]: the concentration for half-maximal inhibition (IC50) at JIK lay within 50 to 500 nM; at TAO, 500 to 5000 nM; in test [1], 500 to 5000 nM.

On to `O=C(CNC(=O)c1ccc(-c2cnco2)cc1)NC1CCCc2ccccc21` (stereo not drawn) [Entry 71, 4-(1,3-oxazol-5-yl)-N-[2-oxo-2-(1,2,3,4-tetrahydronaphthalen-1-ylamino)ethyl]benzamide], for which the concentration for half-maximal inhibition (IC50) at JIK is < 50 nM; at TAO, 50 to 500 nM; in test [1], 50 to 500 nM.

Consider `O=C(CNC(=O)NCCc1ccc(-c2ccccc2)cc1)NC1CCCc2ccccc21` (stereo not drawn) [Entry 72, N˜2˜-{[(2-biphenyl-4-ylethyl)amino]carbonyl}-N-(1,2,3,4-tetrahydronaphthalen-1-yl)glycinamide], for which the 50% inhibitory concentration (IC50) (at JIK; at TAO; in test [1]) was > 5000 nM in each case.

On to `O=C(CNC(=O)Nc1ccc(-c2ccccc2)cc1)NC1CCCc2ccccc21` (stereo not drawn) [Entry 73, N˜2˜-[(biphenyl-4-ylamino)carbonyl]-N-(1,2,3,4-tetrahydronaphthalen-1-yl)glycinamide], for which the IC50 at JIK is 50 to 500 nM; on TAO, > 5000 nM; in test [1], > 5000 nM.

Consider `CCc1ccc(-c2ccc(C(=O)NCC(=O)NCc3ccccc3C)cc2)cc1` [Entry 74, 4′-ethyl-N-(2-{[(2-methylphenyl)methyl]amino}-2-oxoethyl)biphenyl-4-carboxamide], for which the IC50 (at JIK; on TAO; in test [1]) was 50 to 500 nM throughout.
